# Source: publication PMC7529893, “Structural basis for substrate recognition and chemical inhibition of oncogenic MAGE ubiquitin ligases” (Nature Communications, 2020)
# Biological target: T1, MAGE-A11:PCF11 interaction (GST-MAGE-A11 and FAM-PCF11_4) (Homo sapiens, UniProt P43364)
# T1 construct: GST-MAGE-A11 MHD (human MAGE-A11 MHD amino acid 218-429); made in house; host or cells: E. coli BL21(DE3)
# T1 sequence (P43364 218-429): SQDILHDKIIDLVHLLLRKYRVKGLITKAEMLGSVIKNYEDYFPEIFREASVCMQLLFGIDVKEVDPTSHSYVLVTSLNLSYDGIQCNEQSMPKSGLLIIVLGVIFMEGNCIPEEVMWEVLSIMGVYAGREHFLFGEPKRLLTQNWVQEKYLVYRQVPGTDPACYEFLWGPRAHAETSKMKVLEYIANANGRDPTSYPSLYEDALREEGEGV
# Assay: TR-FRET primary / single point screen at 15 µM
# Format: binding
# Experimental: The TR-FRET assay buffer with a formula of 50 mM Tris pH 7.5, 20 mM MgCl2, 0.1 mg/ml BSA and 1 mM DTT was freshly prepared before each experiment. All TR-FRET assays were performed in black 384-well plates with 20 µl/well assay volume in the TR-FRET assay buffer at room temperature (~25 °C). All peptides or compounds were solubilized in DMSO. To test the competitive activity of peptides or compounds against the interaction between GST-MAGE-A11 MHD and FAM-PCF11_4 peptide, 10 µl/well peptide or compound at specified concentration was dispensed into a black 384-well low volume plate, followed by 5 µl/well FAM-PCF11_4 (800 nM), 5 µl/well Tb-anti-GST (20 nM), and GST-MAGE-A11 MHD (20 nM). The assay components in each well was then mixed by shaking the plate on an IKA MTS 2/4 digital microtiter plate shaker (IKA Works; Wilmington, NC, USA) for 1 min. The plate was further centrifuged in an Eppendorf 5810 centrifuge with an A-4-62 swing-bucket rotor (Eppendorf AG, Hamburg, Germany) at 201 g for 30 s. The plate was then incubated for 90 min with a lid to avoid light exposure to the assay components. After incubation, the fluorescent emission signals at 520 nm and 490 nm channels of individual wells were measured with a PHERAstar FS plate reader (BMG Labtech; Durham, NC, USA) by using a 340 nm excitation filter, 100 µs delay time, and 200 µs integration time. The TR-FRET fluorescence emission ratio (TR-FRET signal) for each well was presented as 10,000 × 520 nm/490 nm, which was used directly for curve fitting, or further converted to %Inhibition based on the respective positive and negative controls. The graphic software GraphPad Prism 4.81 (GraphPad Software; La Jolla, CA, USA) was used to generate curves and derive IC50 values of tested peptides or compounds, if applicable. TR-FRET screen for identifying MAGE-A11 small molecule inhibitors was performed as follows. The primary one-concentration screening and subsequent 10 or 20-concentration dose-response tests were accomplished with an automated High Throughput Screening system (HighRes Biosolutions, Beverly, MA)[30]. In the primary screening, 15 µl/well FAM-PCF11_4 (267 nM) was first dispensed with a Multidrop Combi Reagent Dispenser (Thermo Fisher Scientific, Waltham, MA) to black 384-well low-volume assay plates. The plates were spun down with a Velocity11 VSpin microplate centrifuge (Agilent Technologies, Santa Clara, CA). In total, 30 nl/well of 10 mM compound/DMSO solutions, or DMSO alone, were transferred from compound plates (the St. Jude FDA drug and bioactive library, Drug-like library and Lead-like library) or a control plate to the assay plates with a Pin Tool (V&P Scientific, San Diego, CA). The compounds were arrayed in columns 3–12 and columns 15–24 of compound plates. The controls were arrayed in columns 1, 2, 13, and 14 of a compound plate. In all, 5 µl/well Tb-anti-GST (20 nM) and GST-MAGE-A11 (20 nM) or 5 µl/well Tb-anti-GST (20 nM) alone was then dispensed to selected wells with a Multidrop Combi Reagent Dispenser. The final assay volume was 20 µl/well. […] The final tested compound concentration was 15 µM. The final FAM-PCF11_4 concentration was 200 nM and the final Tb-anti-GST concentration was 5 nM. The final GST-MAGE-A11 concentration was 5 nM except for those selected positive control wells in which GST-MAGE-A11 was not presented. The plates were then shaken with a big bear shaker (Big Bear Automation, Santa Clara, California) and spun down with the Velocity11 VSpin microplate centrifuge for 20 s. The plates were then incubated at room temperature in a Liconic incubator (Liconic US, Woburn, MA) for 90 min. The TR-FRET signals for individual wells were measured with a PHERAstar FS plate reader. The %Inhibition of each tested inhibitor was calculated by using Eq. 1. Those inhibitors with %Inhibition >30% in the primary screening were selected for further dose-response test, along with additional newly synthesized compounds. […]
# [1] = single point TR-FRET screening of 797 quinoline compounds against MAGE-A11:PCF11
# [2] = single point TR-FRET screening of quinoline compounds against MAGE-A11:PCF11, 15 µM
SMILES,percent inhibition (TR-FRET) [1],percent inhibition (TR-FRET) [2]
COc1ccc2ncc(S(=O)(=O)c3ccc(C)c(C)c3)c(N3CCN(c4ccccc4F)CC3)c2c1 [SJ000117078],-8.289,
CCc1ccc(S(=O)(=O)c2cnc3ccccc3c2N2CCN(c3ccccc3F)CC2)cc1 [SJ000117079],-56.5833,
Cc1ccc(S(=O)(=O)c2cnc3ccccc3c2N2CCN(c3ccc(C)cc3C)CC2)cc1 [SJ000117080],3.172,
Cc1cccc(N2CCN(c3c(S(=O)(=O)c4ccccc4)cnc4ccccc34)CC2)c1C [SJ000117081],-13.1252,
COc1ccc2ncc(S(=O)(=O)c3ccccc3)c(N3CCN(c4cccc(C)c4C)CC3)c2c1 [SJ000117082],-241.81,
Cc1ccc(C)c(N2CCN(c3c(S(=O)(=O)c4ccccc4)cnc4ccc(F)cc34)CC2)c1 [SJ000117083],-15.3776,
Cc1ccc(S(=O)(=O)c2cnc3ccccc3c2N2CCN(c3cc(C)ccc3C)CC2)cc1 [SJ000117084],2.443,
COc1ccc2ncc(S(=O)(=O)c3ccc(C)cc3)c(N3CCN(Cc4ccccc4)CC3)c2c1 [SJ000117085],-82.2209,
CCc1ccc(S(=O)(=O)c2cnc3ccccc3c2N2CCN(Cc3ccccc3)CC2)cc1 [SJ000117086],-55.2584,
CCOC(=O)c1cnc2ccc(OC)cc2c1NCCCN1CCOCC1 [SJ000127046],,2.945
CCOC(=O)c1cnc2ccc(C(=O)OC)cc2c1NCCN1CCOCC1 [SJ000127079],-7.813,
CCOC(=O)c1cnc2c(C)cc(Cl)cc2c1NCCN1CCOCC1 [SJ000129560],4.96,
CCOC(=O)c1cnc2c(C)c(Cl)ccc2c1NCCCN1CCOCC1 [SJ000129912],,-23.261
CCOC(=O)c1cnc2c(C(F)(F)F)cccc2c1NCCCN1CCOCC1 [SJ000131358],,10.0613
CCOC(=O)c1cnc2c(C)c(C)ccc2c1NCCN(C)C [SJ000134078],8.5376,
CCOC(=O)c1cnc2c(Cl)cccc2c1NCCN1CCOCC1 [SJ000163436],-6.529,
CCOC(=O)c1cnc2c(C)cc(C)cc2c1NCCN1CCOCC1 [SJ000172983],8.869,
CCOC(=O)c1cnc2c(C)cc(C)cc2c1NCCCN1CCOCC1 [SJ000173725],,6.494
CCOC(=O)c1cnc2c(C)cc(Cl)cc2c1NCCCN1CCOCC1 [SJ000174094],,-10.5199
CCOC(=O)c1cnc2c(Cl)cc(Cl)cc2c1NCCN1CCOCC1 [SJ000175864],-13.059,
CCOC(=O)c1cnc2c(Cl)cc(Cl)cc2c1NCCCN1CCOCC1 [SJ000176476],,-2.118
CCOC(=O)c1cnc2ccc(Br)cc2c1NCCCN1CCOCC1 [SJ000176507],,-22.0025
CCOC(=O)c1ccc2ncc(C(=O)OCC)c(NCCCN3CCOCC3)c2c1 [SJ000176583],,11.255
CCOC(=O)c1cnc2c(OC)cccc2c1NCCCN1CCOCC1 [SJ000180455],,3.635
CCOC(=O)c1cnc2c(C(=O)OC)cccc2c1NCCN1CCOCC1 [SJ000184799],4.043,
CCOC(=O)c1cnc2c(CC)cccc2c1NCCCN1CCOCC1 [SJ000185196],,-4.499

SMILES,percent inhibition (TR-FRET) [1],percent inhibition (TR-FRET) [2]
CCOC(=O)c1cnc2ccc(Cl)cc2c1N1CCN(C)CC1 [SJ000187322],-0.9277,
Cc1ccc(S(=O)(=O)N2CCN(c3ccnc4cc(Cl)ccc34)CC2)cc1 [SJ000192519],-38.6966,
CC(=O)Nc1ccc(S(=O)(=O)N2CCN(c3ccnc4cc(Cl)ccc34)CC2)cc1 [SJ000193862],-16.1911,
COc1ccc(S(=O)(=O)N2CCN(c3ccnc4cc(Cl)ccc34)CC2)cc1 [SJ000199955],-32.0719,
O=S(=O)(c1ccc(Br)cc1)N1CCN(c2ccnc3cc(Cl)ccc23)CC1 [SJ000201754],-16.7513,
O=S(=O)(c1ccc(F)cc1)N1CCN(c2ccnc3cc(Cl)ccc23)CC1 [SJ000203833],-50.6426,
O=S(=O)(c1ccc(Cl)cc1)N1CCN(c2ccnc3cc(Cl)ccc23)CC1 [SJ000204656],-34.3905,
C=CCOCC(O)CN1CCN(c2cc(C)nc3ccccc23)CC1 (stereo not shown) [SJ000227652],-0.207,
Cc1cc(N2CCN(CC(O)CO)CC2)c2ccccc2n1 (stereo not shown) [SJ000227653],-4.954,
Cc1cc(N2CCN(CC(O)COCC(C)C)CC2)c2ccccc2n1 (stereo not shown) [SJ000227654],-3.251,
C#CCOCC(O)CN1CCN(c2cc(C)nc3ccccc23)CC1 (stereo not shown) [SJ000227655],6.55,
C=CCOCC(O)CN1CCN(c2cc(C(F)(F)F)nc3ccccc23)CC1 (stereo not shown) [SJ000228017],-2.128,
C#CCOCC(O)CN1CCN(c2cc(C(F)(F)F)nc3ccccc23)CC1 (stereo not shown) [SJ000228018],-9.5157,
O=S(=O)(c1ccccc1)c1cnc2ccc(Cl)cc2c1N1CCN(Cc2ccccc2)CC1 [SJ000247242],-30.2832,
CCOc1ccc2ncc(C(=O)c3ccc(OC)cc3)c(N3CCN(CC)CC3)c2c1 [SJ000247243],-9.084,
COc1ccc2ncc(C(=O)c3ccccc3)c(N3CCN(C)CC3)c2c1 [SJ000247245],-2.393,
COc1ccc2ncc(S(=O)(=O)c3ccccc3)c(N3CCN(Cc4ccccc4)CC3)c2c1 [SJ000247248],-71.1577,
CCOc1ccc2ncc(S(=O)(=O)c3ccccc3)c(N3CCN(Cc4ccccc4)CC3)c2c1 [SJ000247249],-15.9076,
CCOc1ccc2ncc(C(=O)c3ccc(C)cc3)c(N3CCN(C)CC3)c2c1 [SJ000247254],-10.6078,
Cc1ccc2ncc(S(=O)(=O)c3ccccc3)c(N3CCN(Cc4ccccc4)CC3)c2c1 [SJ000247256],2.673,
O=S(=O)(c1ccccc1)c1cnc2ccc(F)cc2c1N1CCN(Cc2ccccc2)CC1 [SJ000247257],-62.2806,
Cc1ccc(S(=O)(=O)c2cnc3ccccc3c2N2CCN(C)CC2)cc1 [SJ000247268],-13.5889,
CCOc1ccc2ncc(C(=O)c3ccc(OC)cc3)c(N3CCN(C)CC3)c2c1 [SJ000247277],-18.955,
CCc1ccc2ncc(C(=O)c3ccccc3)c(N3CCN(CC)CC3)c2c1 [SJ000247281],-2.261,
CCN1CCN(c2c(C(=O)c3ccc(C)cc3)cnc3ccc(OC)cc23)CC1 [SJ000247282],3.9003,
CCOc1ccc2ncc(C(=O)c3ccccc3)c(N3CCN(CC)CC3)c2c1 [SJ000247283],-0.2733,
